Experimental data from patent publication US20230405002A1, “COMBINATIONS OF DIACYLGLYCEROL ACYLTRANSFERASE 2 INHIBITORS AND ACETYL-COA CARBOXYLASE INHIBITOR” (Pfizer Inc., priority 2020, published 2023).

Tested on: Western diet fed Sprague Dawley rats
Test: Compound A / Compound D study in Western diet fed rats: hepatic triglyceride (steatosis)
Format: in vivo, rat
Settings: relative to vehicle administered Western diet fed rats
Description: A randomized, vehicle-controlled, 8-parallel arm study was conducted in male Sprague-Dawley rats (Charles River (Boston, MA)) to obtain circulating and hepatic TG levels. Standard laboratory conditions were used to house 96 rats (˜200 g); they were double housed and kept under 12:12-hour reverse light-dark schedule (lights off at 8:00 AM). Rats were randomized into chow or Western diet groups and dose groups upon arrival and were given a 14-day lead-in period on either standard rat chow or Western diet prior to the start of the study. Standard Laboratory Rodent chow diet, 5053, was from LabDiet (PMI, St Louis, Missouri). Western Diet, D12079Bi, was from Research Diets (New Brunswick, NJ).
For these studies, vehicle was prepared to make a 0.5% (wt/volume) of methyl cellulose (MC, Sigma Aldrich, 274429) in deionized water.
On the last day of the study (Day 28), rats were sacrificed for tissue collection after a 4 hour fast, 2 hours post-dose: two hours post-dose, blood for determining plasma analytes was collected via lateral tail vein and then the animals were sacrificed by CO2 asphyxiation. Blood was transferred to BD Microtainer tubes coated with K2EDTA (PN365974), centrifuged at 4° C. and the plasma transferred to a 96-well microtitre plate and stored at −20° C. Livers were rapidly removed, freeze-clamped in a Wollenberg clamp pre-cooled in liquid N2 individually wrapped in aluminum foil and subsequently stored at −80° C.
Tissue pulverization: Frozen livers were rapidly pulverized on an aluminum block cooled in liquid N2, ensuring the tissue remained frozen throughout the pulverization. The pulverized tissues were transferred and stored in 7 mL polypropylene conical tubes at −80° C. until analysis.
Extraction for hepatic triglyceride: Approximately 50 to 100 mg of pulverized tissue was added to a 2 mL lysing matrix D tube (MP Bio) containing 800 μL ice cold 1:1 CHCl3:MEOH. Samples were immediately extracted at 4° C. using Qiagen Tissue Lyser II (Qiagen Cat No. 85300) for 4 minutes at 30 Hz. The homogenate was then transferred to 13×100 mm glass tubes and placed on ice. The lysis tubes were then rinsed with 800 μL of 1:1 CHCl3:MeOH, vortexed for 30 seconds and added to the 13×100 mm glass tubes. While on ice, 2.4 ml of 100% CHCl3 was added to all glass vials to bring the ratio of CHCl3:MeOH to 4:2. Samples were then placed in the −20° C. freezer overnight. On the following day, 1.75 mL 1 M KCl H2O was added to bring the ratio to 4:2:1.75 ratio CHCl3:MeOH:H2O. Samples were then vortexed for 30 seconds and centrifuged at 1500 rpm×15 min., at 4° C. After centrifugation, the organic phase was transferred to a fresh 13×100 mm extraction tube, dried down at 37° C. under N2 and re-suspended in 750 μL CHCl3. […]

[1] = high dose (Compound A 10 mg/kg QD, Compound D 30 mg/kg BID)
[2] = low dose (Compound A 1 mg/kg QD, Compound D 5 mg/kg BID)

Compound | reduction in steatosis (hepatic triglyceride) [1] [%] | reduction in steatosis (hepatic triglyceride) [2] [%]
COc1cc(C(=O)N2CCC3(CC2)CC(=O)c2c(cnn2C(C)C)C3)cc(-c2ccc(C(=O)O)cc2)n1 [Compound A, 4-(4-(1-isopropyl-7-oxo-1,4,6,7-tetrahydrospiro[indazole-5,4′-piperidine]-1′-carbonyl)-6-methoxypyridin-2-yl)benzoic acid] | 53 | 36
CCOc1cccnc1Oc1cncc(-c2ncc(C(=O)N[C@H]3CCOC3)cn2)c1 [Compound D, (S)-2-(5-((3-ethoxypyridin-2-yl)oxy)pyridin-3-yl)-N-(tetrahydrofuran-3-yl)pyrimidine-5-carboxamide] | 30 | 25
